Test system: HT1080 cells
Assay: Cell viability CCK-8 assay
Format: cell-based, human
Conditions: Homo sapiens, HT-1080, CCK-8, 48 h, read-out: IC50 (cytotoxicity)
Procedure: To determine whether GPX4 degradation following treatment with HSP70‐PROTACs triggers cancer cell ferroptosis, we initially assessed the viability of HT1080 cells using the CCK‐8 assay after treatment with various concentrations of the tested compounds for 48 h. GPX4 inhibitor ML162, HSP70 inhibitor apoptozole, and two GPX4 non‐degradable HSP70‐PROTAC molecules, GDAz‐Neg1 and GDAz‐Neg2, were selected as controls. […] This remarkable activity might partly be ascribed to the high cell permeability conferred by the piperazine ring. […] We speculated that the potent anti‐proliferative activity of GDAz‐Neg2 may be attributed to the GPX4 inhibition.
The compounds under investigation were initially dissolved in dimethyl sulfoxide (DMSO) to generate stock solutions with a concentration of 10 mM. HT1080 cells or other tested cells were seeded in 96‐well plates at a density of 3000–5000 cells well^−1 and cultured at 37 °C. Following a 24‐h incubation period, the tested compounds were added to the wells at various concentrations (the DMSO stock solutions of all the tested compounds were diluted with culture medium to obtain the designated concentration containing a final concentration of DMSO less than 0.5% (v/v)). The cells were then cultured for an additional 48 or 72 h. Cell Counting Kit 8 (CCK‐8) assay was conducted to examine the effects of the tested compounds on cell viability, and the absorbance was measured at a wavelength of 450 nm. The IC50 values were determined utilizing GraphPad Prism software through nonlinear regression analysis. All experiments were independently repeated at least three times.

Question: How did the IC50 turn out when `COc1ccc(-c2nc(-c3cc(C(F)(F)F)cc(C(F)(F)F)c3)n(Cc3ccc(C(=O)NCCOCCn4cc(COc5ccc(N(C(=O)CCl)C(C(=O)NCCc6ccccc6)c6cccs6)cc5Cl)nn4)cc3)c2-c2ccc(OC)cc2)cc1` (stereo not drawn) [GDAz-1, 4-((2-(3,5-bis(trifluoromethyl)phenyl)-4,5-bis(4-methoxyphenyl)-1H-imidazol-1-yl)methyl)-N-(2-(2-(4-((2-chloro-4-(2-chloro-N-(2-oxo-2-(phenethylamino)-1-(thiophen-2-yl)ethyl)acetamido)phenoxy)methyl)-1H-1,2,3-triazol-1-yl)ethoxy)ethyl)benzamide] was run?
Answer: 21700 ± 5300 nM

Question: With `COc1ccc(-c2nc(-c3cc(C(F)(F)F)cc(C(F)(F)F)c3)n(Cc3ccc(C(=O)NCCOCCOCCn4cc(COc5ccc(N(C(=O)CCl)C(C(=O)NCCc6ccccc6)c6cccs6)cc5Cl)nn4)cc3)c2-c2ccc(OC)cc2)cc1` (stereo not drawn) [GDAz-2, 4-((2-(3,5-bis(trifluoromethyl)phenyl)-4,5-bis(4-methoxyphenyl)-1H-imidazol-1-yl)methyl)-N-(2-(2-(2-(4-((2-chloro-4-(2-chloro-N-(2-oxo-2-(phenethylamino)-1-(thiophen-2-yl)ethyl)acetamido)phenoxy)methyl)-1H-1,2,3-triazol-1-yl)ethoxy)ethoxy)ethyl)benzamide] as the compound, how does the IC50 read?
Answer: 390 ± 110 nM

Question: How did the IC50 turn out when `COc1ccc(-c2nc(-c3cc(C(F)(F)F)cc(C(F)(F)F)c3)n(Cc3ccc(C(=O)NCCOCCOCCOCCOCCn4cc(COc5ccc(N(C(=O)CCl)C(C(=O)NCCc6ccccc6)c6cccs6)cc5Cl)nn4)cc3)c2-c2ccc(OC)cc2)cc1` (stereo not drawn) [GDAz-4, 4-((2-(3,5-bis(trifluoromethyl)phenyl)-4,5-bis(4-methoxyphenyl)-1H-imidazol-1-yl)methyl)-N-(14-(4-((2-chloro-4-(2-chloro-N-(2-oxo-2-(phenethylamino)-1-(thiophen-2-yl)ethyl)acetamido)phenoxy)methyl)-1H-1,2,3-triazol-1-yl)-3,6,9,12-tetraoxatetradecyl)benzamide] was run?
Answer: 390 ± 80 nM

Question: How did the IC50 turn out when `COc1ccc(-c2nc(-c3cc(C(F)(F)F)cc(C(F)(F)F)c3)n(Cc3ccc(C(=O)NCCOCCOCCOCCOCCOCCn4cc(COc5ccc(N(C(=O)CCl)C(C(=O)NCCc6ccccc6)c6cccs6)cc5Cl)nn4)cc3)c2-c2ccc(OC)cc2)cc1` (stereo not drawn) [GDAz-5, 4-((2-(3,5-bis(trifluoromethyl)phenyl)-4,5-bis(4-methoxyphenyl)-1H-imidazol-1-yl)methyl)-N-(17-(4-((2-chloro-4-(2-chloro-N-(2-oxo-2-(phenethylamino)-1-(thiophen-2-yl)ethyl)acetamido)phenoxy)methyl)-1H-1,2,3-triazol-1-yl)-3,6,9,12,15-pentaoxaheptadecyl)benzamide] was run?
Answer: 210 ± 30 nM

Question: With `COc1ccc(-c2nc(-c3cc(C(F)(F)F)cc(C(F)(F)F)c3)n(Cc3ccc(C(=O)NCCNC(=O)Cn4cc(COc5ccc(N(C(=O)CCl)C(C(=O)NCCc6ccccc6)c6cccs6)cc5Cl)nn4)cc3)c2-c2ccc(OC)cc2)cc1` (stereo not drawn) [GDAz-6, 4-((2-(3,5-bis(trifluoromethyl)phenyl)-4,5-bis(4-methoxyphenyl)-1H-imidazol-1-yl)methyl)-N-(2-(2-(4-((2-chloro-4-(2-chloro-N-(2-oxo-2-(phenethylamino)-1-(thiophen-2-yl)ethyl)acetamido)phenoxy)methyl)-1H-1,2,3-triazol-1-yl)acetamido)ethyl)benzamide] as the compound, how does the IC50 read?
Answer: 350 ± 80 nM

Question: For `COc1ccc(-c2nc(-c3cc(C(F)(F)F)cc(C(F)(F)F)c3)n(Cc3ccc(C(=O)NCCCNC(=O)Cn4cc(COc5ccc(N(C(=O)CCl)C(C(=O)NCCc6ccccc6)c6cccs6)cc5Cl)nn4)cc3)c2-c2ccc(OC)cc2)cc1` (stereo not drawn) [GDAz-7, 4-((2-(3,5-bis(trifluoromethyl)phenyl)-4,5-bis(4-methoxyphenyl)-1H-imidazol-1-yl)methyl)-N-(3-(2-(4-((2-chloro-4-(2-chloro-N-(2-oxo-2-(phenethylamino)-1-(thiophen-2-yl)ethyl)acetamido)phenoxy)methyl)-1H-1,2,3-triazol-1-yl)acetamido)propyl)benzamide], which IC50 is on record?
Answer: 530 ± 70 nM

Question: With `COc1ccc(-c2nc(-c3cc(C(F)(F)F)cc(C(F)(F)F)c3)n(Cc3ccc(C(=O)NCCCCNC(=O)Cn4cc(COc5ccc(N(C(=O)CCl)C(C(=O)NCCc6ccccc6)c6cccs6)cc5Cl)nn4)cc3)c2-c2ccc(OC)cc2)cc1` (stereo not drawn) [GDAz-8, 4-((2-(3,5-bis(trifluoromethyl)phenyl)-4,5-bis(4-methoxyphenyl)-1H-imidazol-1-yl)methyl)-N-(4-(2-(4-((2-chloro-4-(2-chloro-N-(2-oxo-2-(phenethylamino)-1-(thiophen-2-yl)ethyl)acetamido)phenoxy)methyl)-1H-1,2,3-triazol-1-yl)acetamido)butyl)benzamide] as the compound, how does the IC50 read?
Answer: 130 ± 40 nM

Question: Which IC50 does the source give for `COc1ccc(-c2nc(-c3cc(C(F)(F)F)cc(C(F)(F)F)c3)n(Cc3ccc(C(=O)NCCCCCNC(=O)Cn4cc(COc5ccc(N(C(=O)CCl)C(C(=O)NCCc6ccccc6)c6cccs6)cc5Cl)nn4)cc3)c2-c2ccc(OC)cc2)cc1` (stereo not drawn) [GDAz-9, 4-((2-(3,5-bis(trifluoromethyl)phenyl)-4,5-bis(4-methoxyphenyl)-1H-imidazol-1-yl)methyl)-N-(5-(2-(4-((2-chloro-4-(2-chloro-N-(2-oxo-2-(phenethylamino)-1-(thiophen-2-yl)ethyl)acetamido)phenoxy)methyl)-1H-1,2,3-triazol-1-yl)acetamido)pentyl)benzamide] here?
Answer: 140 ± 20 nM

Question: With `COc1ccc(-c2nc(-c3cc(C(F)(F)F)cc(C(F)(F)F)c3)n(Cc3ccc(C(=O)NCCCCCCNC(=O)Cn4cc(COc5ccc(N(C(=O)CCl)C(C(=O)NCCc6ccccc6)c6cccs6)cc5Cl)nn4)cc3)c2-c2ccc(OC)cc2)cc1` (stereo not drawn) [GDAz-10, 4-((2-(3,5-bis(trifluoromethyl)phenyl)-4,5-bis(4-methoxyphenyl)-1H-imidazol-1-yl)methyl)-N-(6-(2-(4-((2-chloro-4-(2-chloro-N-(2-oxo-2-(phenethylamino)-1-(thiophen-2-yl)ethyl)acetamido)phenoxy)methyl)-1H-1,2,3-triazol-1-yl)acetamido)hexyl)benzamide] as the compound, how does the IC50 read?
Answer: > 30000 nM

Target: T1, GPX4 (Homo sapiens, UniProt P36969)
T1 sequence (P36969 1-170 isoform P36969-2): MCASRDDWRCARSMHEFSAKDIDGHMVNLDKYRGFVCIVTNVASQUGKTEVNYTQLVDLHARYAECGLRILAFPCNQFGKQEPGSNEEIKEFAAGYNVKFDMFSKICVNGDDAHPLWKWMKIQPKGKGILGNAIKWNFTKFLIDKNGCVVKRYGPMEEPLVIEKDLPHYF
Assay: GPX4 degradation by western blot in HT1080 cells
Format: cell-based
Set-up: determine the changes in the endogenous levels of GPX4 by western blot assay; endogenous in cells; host or cells: HT1080 fibrosarcoma cells, including siRNA-knockdown derivatives
Conditions: HT1080 cells, 24 h, concentration over 5 µM
Procedure: To evaluate the GPX4 degradation efficiency of the synthesized HSP70‐PROTACs GDAz‐1–14, we first selected ferroptosis‐sensitive HT1080 fibrosarcoma cells (highly‐expressing GPX4) treated with different concentrations (0.1, 0.3, 1, and 3 µM) of these chimeras to determine the changes in the endogenous levels of GPX4 by western blot assay after 24 h treatment. […] This finding underscores the crucial role of the linker in HSP70‐PROTAC‐mediated protein degradation. […] In the case of alkyl chain derivatives (GDAz‐6–10), elongating the length of the linker generally led to a decreased GPX4 degrading activity. […] Thus, GDAz‐3 was selected for further evaluation.
Cells were seeded at a density of 4 × 10^5 cells well^−1 in 6‐well plates and allowed to incubate overnight. Cells were incubated with the indicated treatments. Thereafter, the cells were collected and lysed with RIPA buffer containing serine protease and phosphatase inhibitors for 30 min on ice. Proteins were quantified by using a BCA protein assay kit (Beyotime). Subsequently, SDS‐PAGE sample loading buffer was added, and the mixture was heated in a 100 °C metal bath for 10 min to denature the proteins. Protein samples from each group were separated by SDS‐PAGE gel and transferred to a PVDF membrane. After blocking with 5% skim milk for 1 h at room temperature, primary antibodies (GPX4: abcam (#ab125066, 1:1000); Hsp70: abcam (#ab2787, 1:1000); CHIP: HUABIO (#ST7108, 1:1000); UpingBio Technology Co., Ltd. (BRD4, #YP‐Ab‐18034, 1:1000; BAG‐1, #YP‐Ab‐00575, 1:1000); GAPDH: Proteintech (#60004‐1‐Ig, 1:50 000)) were used and incubated at 4 °C overnight on a rotary shaker. After washing the membranes with TBST buffer five times, the membranes were incubated with a second antibody (Cell Signaling Technology, #7074S, 1:1000 and #7076S, 1:1000) at room temperature for 2 h. Ultimately, the membrane was washed five times, and the antibody‐protein complexes were visualized using an ECL luminescence reagent (Biosharp, Shanghai, China). The relative intensities of the bands were analyzed by ImageJ and normalized to a loading control.

Question: Which “GPX4 degradation activity of the probe” value does the source give for `COc1ccc(-c2nc(-c3ccc(OCc4cn(CCOCCOCCOCCNC(=O)CCCC[C@@H]5SC[C@@H]6NC(=O)N[C@@H]65)nn4)cc3)n(Cc3ccc(C(=O)NCCOCCOCCOCCn4cc(COc5ccc(N(C(=O)CCl)C(C(=O)NCCc6ccccc6)c6cccs6)cc5Cl)nn4)cc3)c2-c2ccc(OC)cc2)cc1` (stereo partly drawn) [GDAz-biotin] here?
Answer: considerable GPX4 degradation activity

Same assay, conditions: HT1080 cells, 24 h, tested concentrations (Figure 4A)

Question: `COc1ccc(-c2nc(-c3cc(C(F)(F)F)cc(C(F)(F)F)c3)n(Cc3ccc(C(=O)NCCOCCOCCOCCn4cc(COc5ccc(N(C(=O)CO)C(C(=O)NCCc6ccccc6)c6cccs6)cc5Cl)nn4)cc3)c2-c2ccc(OC)cc2)cc1` (stereo not drawn) [GDAz-OH] was tested. Which “GPX4 degradation by negative control compounds” value did it give?
Answer: none of the compounds effectively triggered GPX4 degradation

Same assay, conditions: HT-1080, HT1080 cells, MLN4924 2.5 µM alone; read-out: GPX4 % of control

Question: How did the remaining activity at 2.5 µM turn out when `NS(=O)(=O)OC[C@@H]1C[C@@H](n2ccc3c(N[C@H]4CCc5ccccc54)ncnc32)C[C@@H]1O` [MLN4924, reference compound] was run?
Answer: 96%

— paper PMC12948223, “HSP70 Interactome‐Mediated Proteolysis Targeting Chimera (HSP70‐PROTAC) for Ferroptosis‐Driven Cancer Treatment” (Advanced Science, 2025)
